Measured values from the NIST ThermoML archive (doi:10.1016/j.fluid.2007.12.007).
± gives the expanded uncertainty stated by the source.

Legend:
[1] = xn = mol fraction of the nth substance listed; settings: 101 kPa, Liquid
[2] = 101.33 kPa, Liquid

OCCCCO [1,4-butanediol] + NC=O
[1]
Settings	speed of sound [m/s]	viscosity [mPa·s]
293.15 K, x2 = 0.1052	1606 ± 3.4	64.53 ± 1.2
293.15 K, x2 = 0.1988	1594.7 ± 3.3	44 ± 0.73
293.15 K, x2 = 0.3041	1585.7 ± 3.3	30.1 ± 0.51
293.15 K, x2 = 0.4002	1577.7 ± 3.3	21.2 ± 0.37
293.15 K, x2 = 0.5009	1572.5 ± 3.3	15.13 ± 0.27
293.15 K, x2 = 0.6022	1569.9 ± 3.3	11.33 ± 0.21
293.15 K, x2 = 0.6992	1574.7 ± 3.3	7.998 ± 0.16
293.15 K, x2 = 0.8051	1583.7 ± 3.3	5.512 ± 0.12
293.15 K, x2 = 0.905	1597.1 ± 3.3	4.026 ± 0.089
298.15 K, x2 = 0.1052	1592.6 ± 3.3	48.08 ± 0.8
298.15 K, x2 = 0.1988	1579.2 ± 3.3	31.14 ± 0.53
298.15 K, x2 = 0.3041	1568.5 ± 3.3	19.82 ± 0.35
298.15 K, x2 = 0.4002	1560.2 ± 3.3	12.5 ± 0.23
298.15 K, x2 = 0.5009	1553.9 ± 3.2	8.021 ± 0.16
298.15 K, x2 = 0.6022	1551.3 ± 3.2	6.233 ± 0.13
298.15 K, x2 = 0.6992	1556 ± 3.2	4.971 ± 0.11
298.15 K, x2 = 0.8051	1565.5 ± 3.2	3.96 ± 0.088
298.15 K, x2 = 0.905	1580.5 ± 3.3	3.372 ± 0.075
303.15 K, x2 = 0.1052	1580.1 ± 3.3	38.03 ± 0.64
303.15 K, x2 = 0.1988	1565.3 ± 3.3	24.03 ± 0.41
303.15 K, x2 = 0.3041	1553.4 ± 3.3	13.42 ± 0.24
303.15 K, x2 = 0.4002	1544.2 ± 3.2	7.715 ± 0.15
303.15 K, x2 = 0.5009	1537.7 ± 3.2	4.771 ± 0.11
303.15 K, x2 = 0.6022	1534.5 ± 3.2	3.722 ± 0.083
303.15 K, x2 = 0.6992	1539.5 ± 3.2	3.062 ± 0.069
303.15 K, x2 = 0.8051	1550 ± 3.2	2.658 ± 0.06
303.15 K, x2 = 0.905	1566.3 ± 3.2	2.754 ± 0.062
308.15 K, x2 = 0.1052	1568.8 ± 3.3	30.12 ± 0.51
308.15 K, x2 = 0.1988	1552 ± 3.3	18.56 ± 0.33
308.15 K, x2 = 0.3041	1539.2 ± 3.2	9.498 ± 0.18
308.15 K, x2 = 0.4002	1529.4 ± 3.2	4.663 ± 0.1
308.15 K, x2 = 0.5009	1522.1 ± 3.2	2.696 ± 0.062
308.15 K, x2 = 0.6022	1518.6 ± 3.2	2.188 ± 0.051
308.15 K, x2 = 0.6992	1524 ± 3.2	1.87 ± 0.044
308.15 K, x2 = 0.8051	1534.8 ± 3.2	1.924 ± 0.045
308.15 K, x2 = 0.905	1552.1 ± 3.2	2.366 ± 0.054
313.15 K, x2 = 0.1052	1558.4 ± 3.3	23.74 ± 0.41
313.15 K, x2 = 0.1988	1539.9 ± 3.2	13.81 ± 0.25
313.15 K, x2 = 0.3041	1525.4 ± 3.2	6.541 ± 0.14
313.15 K, x2 = 0.4002	1514.6 ± 3.2	2.871 ± 0.066
313.15 K, x2 = 0.5009	1506.5 ± 3.2	1.619 ± 0.038
313.15 K, x2 = 0.6022	1503 ± 3.2	1.272 ± 0.031
313.15 K, x2 = 0.6992	1508 ± 3.2	1.079 ± 0.027
313.15 K, x2 = 0.8051	1519.6 ± 3.2	1.525 ± 0.036
313.15 K, x2 = 0.905	1537.9 ± 3.2	1.998 ± 0.046
318.15 K, x2 = 0.1052	1546.2 ± 3.3	18.95 ± 0.33
318.15 K, x2 = 0.1988	1525.7 ± 3.2	10.75 ± 0.2
318.15 K, x2 = 0.3041	1510.2 ± 3.2	5.094 ± 0.11
318.15 K, x2 = 0.4002	1498.6 ± 3.2	2.024 ± 0.047
318.15 K, x2 = 0.5009	1490.6 ± 3.2	1.167 ± 0.029
318.15 K, x2 = 0.6022	1486.8 ± 3.1	1.003 ± 0.025
318.15 K, x2 = 0.6992	1491.7 ± 3.1	0.9823 ± 0.025
318.15 K, x2 = 0.8051	1503.8 ± 3.2	1.242 ± 0.03
318.15 K, x2 = 0.905	1524 ± 3.2	1.706 ± 0.04

OCCCCO [1,4-butanediol]
[2]
Settings	speed of sound [m/s]	viscosity [mPa·s]
293.15 K	1616.4 ± 3.4	97.26 ± 4.5
298.15 K	1605.6 ± 3.4	72.75 ± 1.9
303.15 K	1595.9 ± 3.3	56.89 ± 0.56
308.15 K	1587.3 ± 3.3	44.88 ± 0.75
313.15 K	1579.8 ± 3.3	35.81 ± 0.6
318.15 K	1570.2 ± 3.3	29.05 ± 0.5

NC=O [formamide]
[2]
Settings	speed of sound [m/s]	viscosity [mPa·s]
293.15 K	1615.8 ± 3.3	3.654 ± 0.081
298.15 K	1601 ± 3.3	3.322 ± 0.074
303.15 K	1589.2 ± 3.3	2.966 ± 0.067
308.15 K	1577.2 ± 3.3	2.653 ± 0.06
313.15 K	1565.1 ± 3.2	2.404 ± 0.055
318.15 K	1553.1 ± 3.2	2.219 ± 0.051

NC=O [formamide] + CCCCO
[1]
Settings	speed of sound [m/s]	viscosity [mPa·s]
293.15 K, x1 = 0.1093	1302.3 ± 2.8	3.225 ± 0.072
293.15 K, x1 = 0.2057	1337.7 ± 2.9	3.446 ± 0.077
293.15 K, x1 = 0.3138	1377 ± 3	3.598 ± 0.08
293.15 K, x1 = 0.4104	1412 ± 3	3.696 ± 0.082
293.15 K, x1 = 0.5115	1448.4 ± 3.1	3.754 ± 0.083
293.15 K, x1 = 0.6124	1484.4 ± 3.1	3.777 ± 0.084
293.15 K, x1 = 0.7081	1518 ± 3.2	3.77 ± 0.084
293.15 K, x1 = 0.8123	1554 ± 3.2	3.744 ± 0.083
293.15 K, x1 = 0.9086	1586.4 ± 3.3	3.708 ± 0.082
298.15 K, x1 = 0.1093	1281.2 ± 2.8	2.81 ± 0.064
298.15 K, x1 = 0.2057	1315.3 ± 2.9	3.018 ± 0.068
298.15 K, x1 = 0.3138	1353.7 ± 2.9	3.181 ± 0.071
298.15 K, x1 = 0.4104	1388.3 ± 3	3.285 ± 0.073
298.15 K, x1 = 0.5115	1424.6 ± 3	3.352 ± 0.075
298.15 K, x1 = 0.6124	1461 ± 3.1	3.386 ± 0.076
298.15 K, x1 = 0.7081	1495.5 ± 3.1	3.389 ± 0.076
298.15 K, x1 = 0.8123	1533.1 ± 3.2	3.379 ± 0.076
298.15 K, x1 = 0.9086	1567.9 ± 3.2	3.355 ± 0.075
303.15 K, x1 = 0.1093	1261.5 ± 2.8	2.506 ± 0.057
303.15 K, x1 = 0.2057	1294.8 ± 2.8	2.693 ± 0.061
303.15 K, x1 = 0.3138	1332.6 ± 2.9	2.846 ± 0.064
303.15 K, x1 = 0.4104	1367.1 ± 2.9	2.947 ± 0.066
303.15 K, x1 = 0.5115	1403.4 ± 3	3.003 ± 0.068
303.15 K, x1 = 0.6124	1440.3 ± 3	3.032 ± 0.068
303.15 K, x1 = 0.7081	1475.4 ± 3.1	3.036 ± 0.068
303.15 K, x1 = 0.8123	1515.3 ± 3.2	3.019 ± 0.068
303.15 K, x1 = 0.9086	1552.5 ± 3.2	2.996 ± 0.067
308.15 K, x1 = 0.1093	1243.5 ± 2.7	2.202 ± 0.051
308.15 K, x1 = 0.2057	1275.6 ± 2.8	2.371 ± 0.054
308.15 K, x1 = 0.3138	1312.7 ± 2.9	2.516 ± 0.057
308.15 K, x1 = 0.4104	1347 ± 2.9	2.616 ± 0.059
308.15 K, x1 = 0.5115	1383.6 ± 3	2.676 ± 0.061
308.15 K, x1 = 0.6124	1420.5 ± 3	2.702 ± 0.061
308.15 K, x1 = 0.7081	1456.5 ± 3.1	2.705 ± 0.061
308.15 K, x1 = 0.8123	1497.9 ± 3.1	2.688 ± 0.061
308.15 K, x1 = 0.9086	1537.2 ± 3.2	2.671 ± 0.06
313.15 K, x1 = 0.1093	1223.7 ± 2.7	1.92 ± 0.044
313.15 K, x1 = 0.2057	1255.5 ± 2.8	2.081 ± 0.048
313.15 K, x1 = 0.3138	1292.1 ± 2.8	2.224 ± 0.051
313.15 K, x1 = 0.4104	1326 ± 2.9	2.324 ± 0.053
313.15 K, x1 = 0.5115	1362.6 ± 2.9	2.388 ± 0.055
313.15 K, x1 = 0.6124	1399.8 ± 3	2.418 ± 0.055
313.15 K, x1 = 0.7081	1437 ± 3	2.426 ± 0.055
313.15 K, x1 = 0.8123	1479.9 ± 3.1	2.423 ± 0.055
313.15 K, x1 = 0.9086	1521.9 ± 3.2	2.413 ± 0.055
318.15 K, x1 = 0.1093	1203.3 ± 2.7	1.725 ± 0.04
318.15 K, x1 = 0.2057	1234.5 ± 2.7	1.874 ± 0.044
318.15 K, x1 = 0.3138	1270.8 ± 2.8	2.008 ± 0.046
318.15 K, x1 = 0.4104	1305 ± 2.8	2.106 ± 0.049
318.15 K, x1 = 0.5115	1341.3 ± 2.9	2.167 ± 0.05
318.15 K, x1 = 0.6124	1379.1 ± 3	2.204 ± 0.051
318.15 K, x1 = 0.7081	1417.5 ± 3	2.217 ± 0.051
318.15 K, x1 = 0.8123	1461.9 ± 3.1	2.216 ± 0.051
318.15 K, x1 = 0.9086	1506.6 ± 3.2	2.216 ± 0.051

CCC(C)O (configuration not stated) [butan-2-ol]
[2]
Settings	speed of sound [m/s]	viscosity [mPa·s]
293.15 K	1232.6 ± 2.8	4.212 ± 0.43
298.15 K	1212.6 ± 2.7	3.034 ± 0.094
303.15 K	1194.6 ± 2.7	2.495 ± 0.076
308.15 K	1174.5 ± 2.7	2.106 ± 0.064
313.15 K	1155.9 ± 2.6	1.784 ± 0.055
318.15 K	1138.6 ± 2.6	1.524 ± 0.048
